Test results from publication PMC4677828 (Combinatorial chemistry & high throughput screening, 2015).

Experiments:
Format in all cases: biochemical
[1] = target: HDAC1 (Homo sapiens, UniProt Q13547); assay: single-concentration inhibition assay; details: 100 μM inhibitor
[2] = target: T1, HDAC6 (Homo sapiens, UniProt Q9UBN7); assay: single-concentration inhibition assay; details: 100 μM inhibitor
T1 sequence (Q9UBN7 1-1215): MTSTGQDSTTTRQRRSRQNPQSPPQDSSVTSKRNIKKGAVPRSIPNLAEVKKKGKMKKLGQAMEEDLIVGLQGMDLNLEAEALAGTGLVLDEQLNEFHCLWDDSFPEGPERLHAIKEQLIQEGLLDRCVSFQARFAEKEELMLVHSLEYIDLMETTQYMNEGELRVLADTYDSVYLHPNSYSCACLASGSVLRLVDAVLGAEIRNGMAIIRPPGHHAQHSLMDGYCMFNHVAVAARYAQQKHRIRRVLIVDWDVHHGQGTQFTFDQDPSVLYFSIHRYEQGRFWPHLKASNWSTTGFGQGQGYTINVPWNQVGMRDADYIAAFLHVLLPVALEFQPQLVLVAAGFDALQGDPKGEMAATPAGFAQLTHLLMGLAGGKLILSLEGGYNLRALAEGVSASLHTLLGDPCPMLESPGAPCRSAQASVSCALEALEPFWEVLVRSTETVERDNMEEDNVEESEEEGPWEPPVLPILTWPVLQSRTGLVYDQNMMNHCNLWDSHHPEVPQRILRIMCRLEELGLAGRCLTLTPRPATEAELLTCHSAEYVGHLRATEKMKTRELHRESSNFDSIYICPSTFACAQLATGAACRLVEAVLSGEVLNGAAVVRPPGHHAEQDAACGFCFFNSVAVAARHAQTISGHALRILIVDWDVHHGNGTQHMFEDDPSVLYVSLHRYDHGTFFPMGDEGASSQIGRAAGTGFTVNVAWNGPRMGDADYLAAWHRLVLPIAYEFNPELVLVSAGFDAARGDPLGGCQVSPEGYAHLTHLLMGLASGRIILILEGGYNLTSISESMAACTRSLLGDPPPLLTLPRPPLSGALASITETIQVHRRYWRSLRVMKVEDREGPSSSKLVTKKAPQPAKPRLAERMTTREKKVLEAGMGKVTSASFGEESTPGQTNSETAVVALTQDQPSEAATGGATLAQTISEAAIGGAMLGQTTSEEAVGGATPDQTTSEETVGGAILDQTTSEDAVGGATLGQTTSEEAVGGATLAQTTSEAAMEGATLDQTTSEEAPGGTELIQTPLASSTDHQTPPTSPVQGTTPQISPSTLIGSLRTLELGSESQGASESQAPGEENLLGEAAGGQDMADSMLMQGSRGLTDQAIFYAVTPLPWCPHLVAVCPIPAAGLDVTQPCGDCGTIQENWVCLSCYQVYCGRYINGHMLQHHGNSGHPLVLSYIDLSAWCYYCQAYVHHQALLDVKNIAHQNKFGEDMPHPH

[3] = target: HDAC2 (Homo sapiens, UniProt Q92769); assay: fluorogenic HDAC assay; details: 5 μL of 200 μM HDAC substrate in 50 μL; 30 min pre-incubation; 37 °C; BSA
Sequence of HDAC2 (Q92769 whole entry): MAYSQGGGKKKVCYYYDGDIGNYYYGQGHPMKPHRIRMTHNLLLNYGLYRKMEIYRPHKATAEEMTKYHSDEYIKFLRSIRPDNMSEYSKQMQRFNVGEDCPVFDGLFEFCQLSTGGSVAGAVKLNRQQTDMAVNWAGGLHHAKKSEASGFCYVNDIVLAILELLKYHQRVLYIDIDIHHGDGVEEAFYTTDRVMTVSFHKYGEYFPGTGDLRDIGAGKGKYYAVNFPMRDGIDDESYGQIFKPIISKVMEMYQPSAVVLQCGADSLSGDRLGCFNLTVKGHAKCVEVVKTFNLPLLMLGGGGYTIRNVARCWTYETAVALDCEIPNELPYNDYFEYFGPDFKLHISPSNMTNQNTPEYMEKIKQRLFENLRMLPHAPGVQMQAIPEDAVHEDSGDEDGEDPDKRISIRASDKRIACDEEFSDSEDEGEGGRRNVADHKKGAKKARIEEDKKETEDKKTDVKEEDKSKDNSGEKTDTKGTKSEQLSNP

Sequence of HDAC1 (Q13547 whole entry): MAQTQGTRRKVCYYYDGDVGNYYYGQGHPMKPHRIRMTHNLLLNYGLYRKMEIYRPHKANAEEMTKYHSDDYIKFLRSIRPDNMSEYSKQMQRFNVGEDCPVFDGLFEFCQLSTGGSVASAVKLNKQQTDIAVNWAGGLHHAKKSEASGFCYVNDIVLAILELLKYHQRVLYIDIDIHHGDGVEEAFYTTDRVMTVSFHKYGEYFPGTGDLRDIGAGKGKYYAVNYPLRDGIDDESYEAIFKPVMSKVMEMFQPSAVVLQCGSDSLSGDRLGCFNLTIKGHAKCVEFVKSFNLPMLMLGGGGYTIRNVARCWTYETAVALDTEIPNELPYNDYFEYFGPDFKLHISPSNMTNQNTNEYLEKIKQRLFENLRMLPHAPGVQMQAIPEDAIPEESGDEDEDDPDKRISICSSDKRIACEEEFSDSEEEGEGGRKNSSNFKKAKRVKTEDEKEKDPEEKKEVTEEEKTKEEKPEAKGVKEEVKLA

% inhibition at 100 μM [1]: 86.90% | % inhibition at 100 μM [2]: 34.28% | IC50 [3]: 16.9 µM
Substance: ST088357
